Source: patent US20130287873A1, “PHARMACEUTICAL COMPOSITION AND METHOD FOR PREPARING A MEDICATION FOR PROMOTING WOUND HEALING” (INDUSTRIAL TECHNOLOGY RESEARCH INSTITUTE, priority 2012, published 2013)

System: human umbilical vein endothelial cells
Assay: Proliferation of human umbilical vein endothelial cells by MTT assay
Type: cell-based
Details: Table 4, 48 hours
Description: A growth factor, VEGF, or notoginsenoside R1, etc. were used as control groups to screen a plant extract for promoting proliferation of vein endothelial cells and estimating activity of the plant extract. The experimental method is described as follows. Human umbilical vein endothelial cells were inoculated in a 96 well plate coated with gelatin with a density of 5×10^3 cells/well, and cultured with M199 complete medium in a 37° C. incubator with 5% CO2 overnight. The next day, the medium in the 96 well plate was changed to a medium containing a test plant extract with a specific concentration and a fresh 5% serum without ECGS, and then the culture plate was incubated. After 48 hours, activity of cells in the culture plate were analyzed by MTT assay and quantitated to obtain the information of the-functional specice of plant, the best part of the plant and the best extraction method for the plant for promoting the proliferation of human umbilical vein endothelial cells.
The extract of whole plants of Sambucus formosana Nakai (Herb 1) and the extract of roots of Isatis indigotica Fort. (Herb 2) were diluted 10-fold from 100 μg/mL which was an effective concentration from the primary screening to 0.1 μg/mL to determine the effective range and dose-response of the herbal extracts. The results of the proliferation assay for cells treated with different single-plant extracts are shown in FIG. 1A and Table 4, the results of the activity assay for cells treated with a combination of plant extracts are shown in FIG. 1B and Table 5, and the results of the proliferation assay for cells treated with extracts of specific parts of the plant are shown in FIG. 1C and Table 6. The two kinds of herbs with a concentration of 100 μg/mL have significant effects for promoting growth of vein endothelial cells, and are capable of achieving a promoting effect equivalent to that of VEGF.

| SMILES | Cell growth rate (%) (mean ± standard deviation) (0.005 μM) | Cell growth rate (%) (mean ± standard deviation) (0.05 μM) | Cell growth rate (%) (mean ± standard deviation) (0.5 μM) | Cell growth rate (%) (mean ± standard deviation) (5 μM) | Cell growth rate (%) (mean ± standard deviation) (0.05 μg/mL) | Cell growth rate (%) (mean ± standard deviation) (0.5 μg/mL) | Cell growth rate (%) (mean ± standard deviation) (5 μg/mL) | Cell growth rate (%) (mean ± standard deviation) (50 μg/mL) |
| --- | --- | --- | --- | --- | --- | --- | --- | --- |
| C=CCSSCC=C [Diallyl disulfide (DADS), Diallyl disulfide] | 107 ± 6 | 110 ± 2 | 101 ± 9 | 108 ± 4 |  |  |  |  |
| C=CCSCC=C [Diallyl sulfide (DAS), Diallyl sulfide] | 113 ± 12 | 123 ± 11 | 108 ± 2 | 148 ± 1 |  |  |  |  |
| CC(C)=CCC[C@](C)(O[C@@H]1O[C@H](CO)[C@@H](O)[C@H](O)[C@H]1O)[C@H]1CC[C@]2(C)[C@@H]1[C@H](O)C[C@@H]1[C@@]3(C)CC[C@H](O)C(C)(C)[C@@H]3[C@@H](O[C@@H]3O[C@H](CO)[C@@H](O)[C@H](O)[C@H]3O[C@@H]3OC[C@@H](O)[C@H](O)[C@H]3O)C[C@]12C [Notoginsenoside R1] |  |  |  |  | 118 ± 5 | 95 ± 9 | 107 ± 18 | 91 ± 4 |
